In patent US20240382557A1, “INHIBITION OF TUMOR NECROSIS FACTOR, PRO-INFLAMMATORY CYTOKINES AND OTHER INFLAMMATORY RESPONSE MEDIATORS” (Allegro Pharmaceuticals, LLC, priority 2021, published 2024):
Where a SMILES comes first, the peptide text is derived from it. [ ]: non-standard residue; d: D form. Cya = N[C@@H](CS(=O)(=O)O)C(=O)O

Test system: Human umbilical vein endothelial cells (HUVEC)
Assay: RNA-seq gene expression in HUVEC treated with hypoxia and cytokines
Format: cell-based
Text: Purpose: A chronic pro-inflammatory condition is associated with many ocular diseases, including DED, AMD, and DR. During this process, tissue resident and peripheral immune cells are activated and contribute to formation of a cytotoxic inflammatory state that causes tissue damage and vision loss. In this study, RNA-seq was used to unbiasedly identify the genes regulated by risuteganib treatment in human endothelial cells exposed to hypoxia and cytokines. Analysis of the specific subset of genes regulated by risuteganib enables identification of biological processes and pathways modulated by the oligopeptide.
Methods: Human umbilical vein endothelial cells (HUVEC) were used between passage 3 to 5. All cells were grown at 3% O2 to stimulate endothelial cells into a more angiogenic state. Cells were divided into four treatment groups: control, cytokines for 48 hours, 500 uM risuteganib for 24 hours, and cytokines for 48 hours with 500 uM risuteganib for 24 hours. Cytokine treatment contains both human TNF-a and IL-1b at 1 ng/ml at final concentration. After exposure, cells were collected and their total RNA isolated for RNA-seq. The generated reads were then aligned to human reference genome/transcriptome and gene expression quantified for differential expression analysis and fold change calculation. The list of regulated genes was then used to identify biological processes and pathways that are regulated after risuteganib exposure with cytokine exposure.

[1] = 3% O2, 500 uM risuteganib for 24 hours

`C[C@@H](O)[C@H](NC(=O)[C@H](CS(=O)(=O)O)NC(=O)CNC(=O)[C@H](CCCNC(=N)N)NC(=O)CN)C(=O)N1CCC[C@H]1C(=O)O` [Risuteganib, Glycyl-L-arginylglycyl-3-sulfo-L-alanyl-L-threonyl-L-proline] (H-GRG[Cya]TP-OH) was tested, and the “CCL2 Mean Expression Rate (Normalized as Fraction Control)” value [1] was 0.8696, the “CCL20 Mean Expression Rate (Normalized as Fraction Control)” value [1] was 0.6328 and the “CFH Mean Expression Rate (Normalized as Fraction Control)” value [1] was 0.9706. The “CXCL5 Mean Expression Rate (Normalized as Fraction Control)” value [1] was 1.166, the “CXCL6 Mean Expression Rate (Normalized as Fraction Control)” value [1] was 0.9699 and the “IL6 Mean Expression Rate (Normalized as Fraction Control)” value [1] was 0.9982. For the same compound, the “IL7R Mean Expression Rate (Normalized as Fraction Control)” value [1] was 1.036, the “SELE Mean Expression Rate (Normalized as Fraction Control)” value [1] was 0.7022 and the “TNFAIP3 Mean Expression Rate (Normalized as Fraction Control)” value [1] was 0.946. For the same compound, the “TNFAIP6 Mean Expression Rate (Normalized as Fraction Control)” value [1] was 0, the “TNFRSF11B Mean Expression Rate (Normalized as Fraction Control)” value [1] was 0.8931 and the “genes regulated by both risuteganib and cytokines that are regulated in opposite directions” value (342/403 genes) was 85%. The “reversing the transcriptome changes associated with cytokine treatment (Pearson's r)” value (cytokine-activated condition) was −0.267 and the “number of pathways down-regulated by risuteganib (pathway analysis)” value (incl. cytokine-cytokine receptor interaction, TNF signaling, IL-17 signaling) was 10.
